In patent US11117932B2, “Peptides for specific inhibition of Jag 1-Notch 1 pathway” (The Hong Kong Polytechnic University, priority 2018, dated 2021):
Read-outs that look alike come from different tables or passages of the source. Residues, ends and D or L forms follow the SMILES beside them.

Key:
NICD1 [1] = test: NICD1 formation in S1-M1-80; type: cell-based, human; conditions: 10 μM
Text: (§1) The cleaved Notch1 (Val1744) (D3B8) rabbit monoclonal antibody (CST) and Notch2 (Cleaved Ala1734) rabbit monoclonal antibody at 1:1000 dilution were used to detect human Notch intracellular domain (NICD1) and Notch2 intracellular domain (NICD2), respectively. β-actin was detected using a mouse monoclonal antibody (Santa Cruz Biotechnology) at 1:3000 dilution.

S1-M1-80 cells [2] = test: Clonogenicity assay, S1-M1-80; type: cell-based, human; conditions: for colony formation, combination with TPT: S1-M1-80, combined with 1 μM of TPT (DAPT 1 μM)
Procedure: The procedure for colony formation assay consists of following steps. An appropriate number of cells per well were seeded on a 6-well plate in duplicate. The number of cells for seeding should be related to the aggressiveness of the treatment. The cells were incubated for 12 hours in a CO2 incubator at 37° C. and allow cells to attach to the plate. The cells were treated with peptides or (DAPT) to required concentrations. The cells were incubated in a in a CO2 incubator at 37° C. for about 10 days until cells in control well have formed colonies which are of a substantially good size (the minimum score is 100 cells per colony). After the incubation, the medium was removed and cells were rinsed with 5 ml 1×PBS (phosphate buffered saline. pH 7.2). The cells were then fixed with 1 ml methanol at room temperature for 10 min. After fixation, the cells were stained with 0.5% crystal violet solution and incubated at room temperature for 1 h. After staining, the plates were immersed in deionized water to rinse off crystal violet and air-dried at room temperature for overnight. The dry plates were pictured with scanner. The number of colonies in each well was counted by cell counter software.

DLL1-Notch1 signalling = test: Co-culture Notch luciferase reporter assay, DLL1-induced; type: cell-based, human; conditions: DAPT 50 μM
Procedure: (§2) Specificity of N1 (SEQ ID NO: 10) peptide in inhibiting different Notch ligand-induced Notch signaling was investigated using in vitro co-culture assay. HEK293T or CHO cells expressing Notch ligand (either Jag1, DLL1 or DLL4) are co-cultured with Notch1- or Notch2-expressing cells. Notch1 and Notch2 signalling can be measured by either luciferase reporter assay or by the formation of NICD1 and NICD2. […] Half inhibition is reached at between 50 to 100 μM. […] This contrasts with DAPT which affects all the above interactions.
(§3) HEK-293T-Jagged-1 cells were seeded in 24-well plates in triplicate per sample group, and human HCT-116 cells were seeded in one 60 mm dish. Cells were allowed to settle, and were transfected the following day after the medium was changed to be antibiotic free. HCT-116 cells were transfected with 12×CSL-Luc and Renilla-Luc, using Lipofectamine® 3000 (Invitrogen™), according to the manufacturer's instructions. After 24 hours, HCT-116 cells were scraped and 2.5×10^4 cells in 1 mL complete medium per well were added to both 24-well plates. Peptides were treated to cells with the desired concentrations. N—[N-(3,5-difluorophenacetyl)-L-alanyl]-S-phenylglycine t-butyl ester (DAPT) was used as positive control. Cells were co-cultured for 12 hours before measure the luciferase activity. After incubation, cells were lysed with luciferase lysis buffer. Notch activity in cells expressing the 12×CSL-Luc reporter construct was measured by a luciferase assay using Dual-Luciferase® Reporter Assay System (Promega).

HEK-293T-Jagged-1 cells = type: cell-based, human
Procedure: (§4) HCT-116, HCT-15, S1-M1-80, S1, L929, HEK293T-Jagged-1 were seeded in each well of a 96-well plate with a series of concentrations (a serial dilution from 1000μM to 0.5 μM) of peptides or drugs including DAPT, Topotecan at 37° C. with 5% CO2 in a humidified incubator for 3 days. Percentage of survival was determined by MTS assay as described.

DLL4-Notch1 signalling = test: Co-culture Notch luciferase reporter assay, DLL4-induced; type: cell-based, human; conditions: DAPT 50 μM
Procedure: as §2, §3

S1-M1-80 cells [3] = test: cells; type: cell-based, human
Procedure: as §4

S1 = test: cells; type: cell-based, human
Procedure: as §4

Jag1-Notch1 signalling = test: Co-culture Notch luciferase reporter assay, Jag1-induced; type: cell-based, human; conditions: for inhibition of Jag1-induced Notch signaling compared with N1: peptides 25 μM; for inhibition of Jag1-induced Notch1 signalling, dose response: reporter assay, DAPT 50 μM
Procedure: Jag1-Notch interaction is measured using a co-culture assay with one cell line expressing the Notch ligand Jagged1 (Jag1) and a second expressing Notch (either Notch1 or Notch2). A firefly luciferase reporter plasmid with 12 upstream CBF-1 binding site was transfected into signalling-receiving cells to report on Notch signalling (FIG. 1D). Peptides were tested for their activity in inhibiting Jag1-induced Notch signalling. Complete inhibition is equivalent to the background signal seen without induction (−Jag1). […] N1 (SEQ ID NO: 10) is a 15-mer derived from the EGF-like repeat 12 of Notch1 (C467-G481). This is consistent with the structural information that EGF-like repeat 12 of Notch1 is near the MNNL domain of Jag1 (FIGS. 1B and C).
as §2, §3

in vitro = type: cell-based; conditions: mouse
Procedure: as §4

Jag1-induced NICD1 = test: Co-culture assay, Jag1-induced NICD1 level; type: cell-based, human; conditions: N1 at 50 μM
Procedure: as §2, §1

DLL4-induced NICD1 = test: Co-culture assay, DLL4-induced NICD1 level; type: cell-based, human
Procedure: as §2, §1

NICD1 [4] = test: NICD1 formation in HCT-15; type: cell-based, human; conditions: peptides 100 μM
Procedure: (§5) This panel of peptides was also tested for their cytotoxic activities against two human colorectal cell lines (HCT-116 and HCT-15). At a concentration of 100 μM, N1 (SEQ ID NO: 10) is the only peptide that is cytotoxic to HCT-116 and HCT-15 cells (FIGS. 2B and C). Notch signaling results in the release of NICD1 from the membrane-bound Notch receptor.
as §1

DLL1-induced NICD1 = test: Co-culture assay, DLL1-induced NICD1 level; type: cell-based, human
Procedure: as §2, §1

NICD1 [5] = test: NICD1 formation in HCT-116; type: cell-based, human; conditions: peptides 100 μM
Procedure: as §5, §1

NICD2 = test: Co-culture assay, NICD2 formation (Jag1-Notch2); type: cell-based, human
Procedure: as §2, §1

Compound	colony formation, combination with TPT (S1-M1-80 cells [2]) [colonies/well]	colony formation (S1-M1-80 cells [2]; S1-M1-80, single agent 10 μM) [colonies/well]	inhibition of DLL1-Notch1 signalling (DLL1-Notch1 signalling)	IC50 (HEK-293T-Jagged-1 cells) [µM]	inhibition of DLL4-Notch1 signalling (DLL4-Notch1 signalling)	IC50 (S1-M1-80 cells [3]) [µM]	IC50 (S1) [µM]	inhibition of Jag1-induced Notch signaling compared with N1 (Jag1-Notch1 signalling)	inhibition of Jag1-induced Notch1 signalling, dose response (Jag1-Notch1 signalling)	IC50 at 3 days (in vitro) [µM]	Jag1-induced NICD1 level (Jag1-induced NICD1)	also measured
CC[C@H](C)[C@H](NC(=O)[C@H](CCC(N)=O)NC(=O)[C@H](CC(=O)O)NC(=O)[C@H](CC(C)C)NC(=O)[C@@H](N)CS)C(=O)NCC(=O)N[C@@H](CCC(=O)O)C(=O)N[C@@H](Cc1ccccc1)C(=O)N[C@@H](CCC(N)=O)C(=O)N[C@@H](CS)C(=O)N[C@H](C(=O)N[C@@H](CS)C(=O)N[C@@H](CCC(=O)O)C(=O)O)[C@@H](C)CC [Peptide N102M479E, CLDQIGEFQCICE] (H-CLDQIGEFQCICE-OH; N-terminus and C-terminus assumed)	581	84	did not interfere	> 100	did not interfere	4.9 ± 0.2	> 30	biggest improvement	inhibited Jag1-induced Notch1 signaling in dose dependent manner	> 100	significantly decreased expression level of NICD1	NICD1 formation in S1-M1-80 cells (NICD1 [1]): totally suppress NICD1 formation; colony formation of S1-M1-80, dose response (S1-M1-80 cells [2]): effectively reduced colony formation; colony formation of S1-M1-80 (S1-M1-80 cells [2]; 1 μM): reduced by half; more potent than DAPT (colony formation) (S1-M1-80 cells [2]; 1 μM): 14%; colony formation of S1-M1-80 (S1-M1-80 cells [2]; 5 μM): almost eliminated the formation of all colonies; colony formation of S1-M1-80 (S1-M1-80 cells [2]; 10 μM): completely eliminated the formation of colonies; colony formation (S1-M1-80 cells [2]; S1-M1-80, single agent 1 μM): 925 colonies/well; effect with topotecan on colony formation of S1-M1-80 (S1-M1-80 cells [2]; TPT plus N102M479E): synergistic; increase of potency over TPT-DAPT combination (colony formation) (S1-M1-80 cells [2]; combined with 1 μM of TPT): 19%
C[C@H](NC(=O)Cc1cc(F)cc(F)c1)C(=O)N[C@H](C(=O)OC(C)(C)C)c1ccccc1 [DAPT, N—[N-(3,5-Difluorophenacetyl)-L-alanyl]-S-phenylglycine t-butyl ester, reference compound]	1074	717	can inhibit all signaling		can inhibit all signaling				can inhibit all signaling		equally effective in inhibiting both NICD1 and NICD2	DLL4-induced NICD1 level (DLL4-induced NICD1): can inhibit both; NICD1 formation in HCT-15 (NICD1 [4]): almost complete elimination of NICD1; IC50 (S1-M1-80 cells [3]; S1-M1-80 cells, 3 days, MTS, read-out: IC50 (μM) s1-m1-80): 17.1 ± 0.4 µM; IC50 (S1; S1 cells, 3 days, MTS, read-out: IC50 (μM) S1): > 100 µM; DLL1-induced NICD1 level (DLL1-induced NICD1): can inhibit both; NICD1 formation in HCT-116 (NICD1 [5]): almost complete elimination of NICD1; NICD2 formation (NICD2): equally effective in inhibiting both NICD1 and NICD2
CC[C@H](C)[C@H](NC(=O)[C@H](CCC(N)=O)NC(=O)[C@H](CC(=O)O)NC(=O)[C@H](CC(C)C)NC(=O)[C@@H](N)CS)C(=O)NCC(=O)N[C@@H](CCC(=O)O)C(=O)N[C@@H](Cc1ccccc1)C(=O)N[C@@H](CCC(N)=O)C(=O)N[C@@H](CS)C(=O)N[C@H](C(=O)N[C@@H](CS)C(=O)N[C@@H](CC(=O)O)C(=O)O)[C@@H](C)CC [Peptide N102M479D, CLDQIGEFQCICD] (H-CLDQIGEFQCICD-OH; N-terminus and C-terminus assumed)			did not interfere	> 100	did not interfere	5.8 ± 0.2	> 50	biggest improvement	inhibited Jag1-induced Notch1 signaling in dose dependent manner	> 100	significantly decreased expression level of NICD1	
CC[C@H](C)[C@H](NC(=O)[C@H](CCC(N)=O)NC(=O)[C@H](CC(=O)O)NC(=O)[C@H](CC(C)C)NC(=O)[C@H](CS)NC(=O)[C@@H](N)Cc1c[nH]c2ccccc12)C(=O)NCC(=O)N[C@@H](CCC(=O)O)C(=O)N[C@@H](Cc1ccccc1)C(=O)N[C@@H](CCC(N)=O)C(=O)N[C@@H](CS)C(=O)N[C@H](C(=O)N[C@@H](CS)C(=O)N[C@@H](CCC(=O)O)C(=O)O)[C@@H](C)CC [N102T466W-M479E, WCLDQIGEFQCICE] (H-WCLDQIGEFQCICE-OH; N-terminus and C-terminus assumed)				> 100		54.3 ± 5.2				> 100		
